Results on 1 compound are retold here after PMC8766756, “Insights on Cancer Cell Inhibition, Subcellular Activities, and Kinase Profile of Phenylacetamides Pending 1H-Imidazol-5-One Variants” (Frontiers in Pharmacology, 2022).

≈ marks a conversion by molar mass, not a printed value. Entries after “also recorded” stand apart in the source; their conditions may differ. Read-outs that look alike come from different tables or passages of the source.

The test system of one series is HL60 leukemia cell line. Nature of the series: CellTiter-Blue cell viability assay. In kind it is cell-based. The settings on record: Homo sapiens, HL-60, 48 h, read-out: IC50 ± SEM HL60. The protocol: (§1) The compounds were screened for their anticancer activities against a variety of cancer cell lines. The cytotoxic effect of the compounds was evaluated using the sulforhodamine B (SRB) cytotoxicity assay for breast cancer line (MCF7) and prostate cancer cell line (PC3) ([Vichai and Kirtikara, 2006]; [Rana et al., 2021]) and 3-(4,5-dimethylthiazol-2-yl)-2,5-diphenyl-2H-tetrazolium bromide (MTT) assay for the colon cancer (HCT116) cell lines ([El-Huneidi et al., 2020]). The CellTiter-Blue® cell viability assay was performed on the various leukemia cell lines, HL60, NB4, and KG1a cells ([Akter et al., 2019]). The IC50 values are illustrated in Table 1.
(§2) HL60, NB4, and KG1a were purchased from CLS Cell Line Service GmbH (Eppelheim, Germany). All cell lines were cultured in RPMI-1640 medium supplemented with 10% FBS (Thermo Fisher Scientific) and ciprofloxacin (10 μg/ml; Cipla Limited; Mumbai, India), at 37°C with 5% CO2 in a humidified incubator.
(§3) The CellTiter-Blue® Cell Viability assay was acquired from Promega Corporation (Madison, WI, USA). The cell viability assay was performed as follows: the cells (10^4/well) were incubated with a concentration gradient of the test compounds ranging from 0.01 to 100 μM, in 96-well plates for 48 h at 37°C. Subsequently, 20 µL of the CellTiter-Blue® Cell Viability reagent was added to each well and incubated for an additional 2 h for the development of fluorescence. The fluorescence emission was measured at 590 nm using the SpectraMax® i3x Multi-Mode Microplate Reader (Molecular Devices, LLC; San Jose, CA, USA.) and plotted against the drug concentrations to determine the IC50 of the test compounds.
Background: Alamar Blue is a resazurin reagent that responds to reducing activity.

For another series, the system named is KG1a leukemia cell line. Put plainly: CellTiter-Blue cell viability assay. The series is classed as cell-based. The settings on record: Homo sapiens, KG-1a, 48 h. The method, then: as §1, §2, §3
A further series deals with NB4 leukemia cell line. Nature of the series: CellTiter-Blue cell viability assay. The note with it: Homo sapiens, NB-4, 48 h. In kind it is cell-based. The protocol: as §1, §2, §3
Series [1] can be described thus: Maximum kinetic aqueous solubility. The series is classed as physicochemical. The note with it: phosphate buffer, pH 7.4, aqueous buffer, kinetic from dmso stock. The method, then: Solubility assays were performed using the Millipore MultiScreen® HTS-PFC Filter Plates designed for the solubility assays (EMD Millipore, Billerica, MA). Assays were run in triplicate. The 96-well plates consist of two chambers separated by a filter. Liquid handling was performed using JANUS® Verispan and MTD workstations (Perkin Elmer, Waltham, MA). About 4 µL of the KIM-161 solution (10 mM in DMSO) was added to 196 µL of phosphate buffer (45 mM potassium phosphate, 45 mM sodium acetate, 45 mM ethanolamine, pH = 7.4) in the top chamber to give a final DMSO concentration of 2% and a theoretical drug concentration of 200 µM. The plates were gently shaken for 90 min and then subjected to vacuum. The insoluble drug was captured on the filter. 160 µL of the filtrate was transferred to 96-well Griener UV-Star® analysis plates (Sigma-Aldrich, St. Louis, MO) containing 40 µL of acetonitrile. The test compound concentration in the filtrate is measured by UV absorbance on a Spectromax® Plus microplate reader (Molecular Devices, Sunnyvale, CA) using SoftMax Pro Software v.5.4.5. The absorbances at five wavelengths (280, 300, 320, 340, and 360 nm) were summed to generate the UV signal. Standard curves were generated by adding 4 µL of five concentrations of the test compound in DMSO to 40 µL of acetonitrile in UV Star plates followed by 156 µL of the appropriate solubility medium. […]

A short description of series [2]: Reactivity with GSH (LC/MS). In kind it is physicochemical. The note with it: 37°C. From the text: Because KIM-161 contains α,β-enone moiety, it was investigated for its reactivity with glutathione (GSH), an important cellular component for maintaining the desired redox balance ([Aquilano et al., 2014]).
GSH and solvents were purchased from Sigma-Aldrich. The LC/MS system is composed of an Agilent 1200 HPLC system, a solvent delivery module, a quaternary pump, an autosampler, and a column compartment (Agilent Technology, Germany). The column effluent was connected to an Agilent 6320 Ion Trap-ESI-MS. The column heater was set to 25 ± 2°C. The control of the HPLC system and data processing were performed using ChemStation (Rev. B.01.03 SR2-204) and 6300 Series Trap Control version 6.2 Build No. 62.24 (Bruker Daltonik GmbH). The analytes were separated using an Agilent Zorbax Extend-C18 column (80Å, 150 mm length × 4.6 mm, i.d., 5 μm) and Agilent-Zorbax Extend-C18 pre-column (Agilent Technologies, Palo Alto, CA, USA). The general MS adjustments were set as follows: capillary voltage, 4000 V; nebulizer, 35 psi; drying gas, 12 L/min; desolvation temperature, 350°C; ion charge control smart target, 150,000; and max. accumulation time, 150 ms. The Auto-MSn positive mode was applied. The mobile system was isocratic elution using 55% acetonitrile and 45% water containing 0.1% formic acid (w/v). […]

`COc1ccc(/C=C2\N=C(C)N(c3ccc(CC(=O)NCc4ccccc4)cc3)C2=O)cc1` [Compound 4c, (Z)-N-Benzyl-2-(4-(4-(4-methoxybenzylidene)-2-methyl-5-oxo-4,5-dihydro-1H-imidazol-1-yl)phenyl)acetamide]: the IC50 in the series on HL60 leukemia cell line was found to be 362 ± 20 nM; in the series on KG1a leukemia cell line, 893 nM; in the series on NB4 leukemia cell line, 275 nM. Moreover, the solubility at 90 min was 19.9 µM (≈ 8.75 µg/mL) in series [1] (Max solubility in 2% DMSO/PBS, kinetic, pH 7.4) and around 20 µM (≈ 8.79 µg/mL) in series [1] (read-out: solubility). The “Reactivity with GSH” value in series [2] (pH 7.5, up to 48 h, LC/MS, listed as KIM-161) is “did not show any significant reaction with GSH; also recorded: could not react with GSH; also recorded: No reaction”. Moreover, the “unreacted compound (UV spectrum)” value in series [2] (after 48 h with GSH) is listed as above 98%.

The term IC50 denotes the concentration that inhibits the measured activity by half. By solubility is commonly meant the concentration that dissolves in the medium under given conditions.
